Tests used:
[1] = Quantum yield measurements; assay type: physicochemical; details: referred to Rhodamine B in EtOH, excitation 510 nm, emission integrated 540-800 nm
Procedure, shortened: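 Integrated fluorescence emission from 540 to 800 nm was referenced to Rhodamine B in EtOH (Φ=0.70) after excitation at 510 nm. Quantum yield was calculated with correction for solvent refractive index and absorbance at the excitation wavelength.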

human IgG [2] = experiment: Surface plasmon resonance on immobilized immunoglobulin chip; assay type: binding; details: 25° C., read-out: KD (SPR, steady-state model)
Source text: The following experiments were aimed at determining the dissociation constant of the interaction between Ig Orange and human IgG. Surface Plasmon Resonance (SPR) has been extensively used to measure the binding constants between small molecules and biopolymers, 25 and we modified human IgG with biotin so that it could be immobilized on a neutravidin-coated sensor chip. Upon immobilization of the biotinylated protein on a neutravidin-coated sensor chip CM7, we performed Ig Orange titrations in duplicate with increasing concentrations of the small molecule.
Human IgG (5.0 mg, 0.033 μmol) and biotin-OSu (0.11 mg, 0.33 μmol) were dissolved in 0.1 M NaHCO3 (pH 8.5) and shaken for 1 h at 25° C. […] The fluorescence response of Ig Orange to IgG and biotinylated IgG was compared (FIG. 5). The concentration of biotinylated IgG before fluorescence and SPR experiments was determined by Bradford assay. […] Job Plot Analysis: Ig Orange (final concentrations: 0, 1.6, 3.2, 4.8, 6.4, 8.0, 9.6, 11.2, 12.8, 14.4, 16 μM) and human IgG (final concentrations: 16, 14.4, 12.8, 11.2, 9.6, 8.0, 6.4, 4.8, 3.2, 1.6, 0 μM) were incubated in PBS buffer (pH 7.3) containing 1% DMSO, and the fluorescence intensities of the different solutions were recorded on a SpectraMax M2 plate reader (excitation: 530 nm; emission: 590 nm). […]

[3] = system: Fab and Fc fragments of human IgG1; experiment: Fluorescence increase with Fab and Fc fragments; assay type: binding; details: Fab vs Fc fragments of human monoclonal IgG1
Protocol: FIGS. 6a and 6b show binding sensorgrams of Ig Orange (0.07, 0.21, 0.62, 1.86, 5.57 and 16.70 μM) upon injection across an immobilized immunoglobulin chip, which were fit using the equilibrium responses of a steady-state model. […] Values are represented as means (n=3) and error bars as standard deviations.
In order to identify the region of human IgG to which Ig Orange binds, we evaluated the fluorescence response of Ig Orange in the presence of human polyclonal IgG and monoclonal IgG1, the most abundant subtype. […] To confirm this observation and determine the stoichiometry of the complex between Ig Orange and the full immunoglobulin, we analyzed the interaction by means of a Job plot. A maximum fluorescence increase was detected for a 2:1 Ig Orange:immunoglobulin ratio, which supported our observation that the preferred binding region of Ig Orange corresponded to the Fab fragments of the immunoglobulin (FIG. 7b). […] With this first adaptation of the BODIPY scaffold to a solid-phase approach we accelerated the development of alkylamino BODIPY-based fluorescent probes, being Ig Orange the first immunoglobulin fluorescent sensor.

human IgG [4] = experiment: Structure-fluorescence relationships: Ig Orange vs BD-69 with human IgG; assay type: binding; details: 10 μM each, 20 mM HEPES pH 7.4
Protocol: Ig Orange (BDM-69) (10 μM) and BD-69 (10 μM) were incubated with different concentrations of human IgG in 20 mM HEPES buffer (pH 7.4) and the fluorescence intensities were recorded on a SpectraMax M2 plate reader (excitation: 530 nm; emission: 590 nm), as shown in FIG. 7a. Values are represented as means (n=3) of the fluorescence fold increase after incubation with the protein.

human IgG [5] = experiment: Screening the BDM library: fluorescence response against proteins and peptides; assay type: binding; details: 10 μM dye
Protocol: Fluorescence intensities were measured using a Spectra Max Gemini XSF plate reader in a 384-well plate. BDM compounds were dissolved to a final concentration of 10 μM (20 mM HEPES buffer, pH 7.4, containing 1% DMSO) and incubated with different proteins and peptides at different serial concentrations in 20 mM HEPES buffer (pH 7.4) (FIG. 1a). The excitation wavelength was set at 510 nm, and the emission spectra were recorded from 560 to 700 nm. Fluorescence fold increase ratios were determined by referring the maximum fluorescence intensity emission of BDM compounds in the presence of the screened proteins and peptides to the maximum fluorescence intensity emission of BDM compounds in 20 mM HEPES buffer (pH 7.4) (FIG. 1b).

[6] = Spectroscopic properties of the BDM library (absorbance and emission maxima); assay type: physicochemical
human IgG [7] = experiment: Fluorescence-based fractional saturation curve; details: 10 μM dye, 20 mM HEPES pH 7.4, exc 530 nm, em 590 nm; read-out: dissociation constant Kd (fluorescence binding saturation curve)
Protocol: Ig Orange (10 μM) was incubated with different concentrations of human IgG in 20 mM HEPES buffer (pH 7.4) and the fluorescence intensities were recorded on a SpectraMax M2 plate reader (excitation: 530 nm; emission: 590 nm) (FIG. 9).

Q: What does the source list for `CC1=CC(/C=C/c2ccc(/C=C/c3ccccc3)cc2)=[N+]2C1=C(CCN)c1cccn1[B-]2(F)F` [BDM-69]?
A: φ (quantum yield) [1]: 0.32; Kd (human IgG [2]): 71.7 ± 0.6 µM; preferred binding region of the immunoglobulin [3]: preferred binding to the Fab region; higher fluorescence increase of Ig Orange relative to BD-69 vs. human IgG (human IgG [4]): 15 fold; turn-on fluorescence increase in the presence of human IgG (human IgG [5]; 20 mM HEPES buffer pH 7.4): 75 fold; selectivity profile against proteins and peptides (human IgG [5]; 20 mM HEPES pH 7.4, exc 510 nm): best selectivity profile among the whole library; λmax (ABS) [6]: 574 nm; λmax (EM) [6]: 594 nm; Kd (human IgG [7]): 14.1 ± 0.9 µM

— patent publication US9267949B2, “Alkylamino BODIPY dyes as selective fluorescent probes for proteins and mouse embryonic stem cells” (National University of Singapore, priority 2011, dated 2016)
